Measured values reported in patent US8148092B2, “System and method for performing G protein coupled receptor (GPCR) cell assays using waveguide-grating sensors” (Corning Incorporated, priority 2005, dated 2012).

Tests used:
[1] = system: CHO cells with stably overexpressed rat muscarinic receptor subtype 1 (M1 CHO); assay: optical LID mass redistribution response of CHO cells with stably overexpressed rat muscarinic receptor subtype 1 after compound addition; format: cell-based, Chinese Hamster; settings: compound 10 μM, compared with CHO cells, FIGS. 14, 15, 18
Description: FIG. 14 a time-dependent LID response of engineered Chinese Hamster Ovary (CHO) cells with over-expressed rat muscarnic receptor subtype 1 (thus this cell line is termed as M1 CHO) before and after compound addition. The compound concentration used is 10 μM for all compounds.

CHO cells = assay: optical LID (waveguide grating biosensor) mass redistribution response of adherent CHO cells after compound addition; format: cell-based, Chinese Hamster; settings: for ligand-induced mass redistribution signal (total change in response): CHO cells, compound 10 μM, FIGS. 13, 15, 18
From the text: Referring to FIG. 3, there is shown a flowchart illustrating the basic steps of a method 300 for monitoring in real time the mass redistribution due to an agonist-induced GPCR activation within living cells 108 using an optical LID biosensor 104 in accordance with the present invention. The method 300 includes the following steps: (a) provide an optical LID biosensor 104 (step 302); (b) place a certain number of living cells 108 in a medium which covers the optical LID biosensor 104 such that the living cells 108 attach onto the surface 110 of the optical LID biosensor 104 (step 304); (c) optionally apply a buffer solution at least once into the cell medium (step 306); (d) apply a solution containing a compound (agonist) into the cell medium (step 308); and (e) interrogate the optical LID biosensor 104 and monitor the time dependent optical response 201 of the living cells 108 cultured on the optical LID biosensor 104 (step 310).
It is known that CHO cells 108 endogenously express beta adrenergic receptors, alpha2-adrenergic receptors, P2Y receptors, as well as beta-arrestin and GRKs. It is also known that muscarinic receptors are endogenously expressed at very low level in the CHO cells 108. In this experiment, approximately ˜5×10^4 CHO cells 108 were placed within each well of a microplate that contained an array of optical LID biosensors 104. The CHO cells 108 were then cultured in 150 μl serum medium for 24 hours to ensure that the CHO cells 108 became adherent to the substrate surface 110.
Since muscarinic receptors are endogenously expressed at very low level in CHO cells 108; oxotremorine M, agonist for muscarinic receptors, served as a control. Each of these agonists was directly applied to a different one of the wells which contained the serum medium. The optical responses were then collected by the optical LID system 100.

Cc1scc2c1N(C(=O)CN1CCN(C)CC1)c1ccccc1NC2=O [telenzepine]
ligand-induced mass redistribution signal (total change in response) [1]: not its antagonist (telenzepine) results in significantly larger responses

C[N+](C)(C)CC#CCN1CCCC1=O [oxotremorine M]
ligand-induced mass redistribution signal (total change in response) [1]: significantly larger responses in M1-CHO cells | agonist-induced time-dependent optical LID response (CHO cells; CHO cells in serum medium, ATP 100 μM, epinephrine 100 μM, clonidine 10 μM, oxotremorine M 10 μM, FIG. 10): almost no cell response

Clc1cccc(Cl)c1N=C1NCCN1 [clonidine]
ligand-induced mass redistribution signal (total change in response) (CHO cells): induced mass redistribution signals

CCNC(=O)[C@H]1O[C@@H](n2cnc3c(N)ncnc32)[C@H](O)[C@@H]1O [NECA]
ligand-induced mass redistribution signal (total change in response) [1]: results in mass redistribution signals | ligand-induced mass redistribution signal (total change in response) (CHO cells): results in mass redistribution signals
